Paper PMC8187479, “Sugar phosphate activation of the stress sensor eIF2B” (Nature Communications, 2021)
Residue numbers refer to the chain shown, from its start. Values joined by “and” are separate entries in the source; they are usually repeats but may differ in a detail not shown here. Identical values can stand only once.

Legend:
eIF2Bα^N208Y = biological target: T1, eIF2Bα^N208Y (Homo sapiens, UniProt Q14232, N208Y); test: Isothermal titration calorimetry, eIF2Bα N208Y; format: binding; conditions: ITC
T1 construct: made in house; host or cells: E. coli BL21(DE3)
T1 sequence (Q14232 1-305 N208Y): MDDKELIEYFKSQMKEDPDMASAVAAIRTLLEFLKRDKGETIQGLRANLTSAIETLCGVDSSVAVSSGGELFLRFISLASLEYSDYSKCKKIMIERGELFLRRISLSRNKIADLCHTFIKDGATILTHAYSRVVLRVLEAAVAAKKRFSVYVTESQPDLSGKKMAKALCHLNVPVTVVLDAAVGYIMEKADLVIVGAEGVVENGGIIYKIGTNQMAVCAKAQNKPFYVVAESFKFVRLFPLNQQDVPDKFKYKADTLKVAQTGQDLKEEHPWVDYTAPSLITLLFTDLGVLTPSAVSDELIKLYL
Procedure: (§1) Interactions between recombinant protein and sugar phosphates were conducted with a MicroCal PEAQ-ITC (Malvern Panalytical Inc.). Experiments were performed in 25 mM HEPES, 150 mM NaCl, pH 7.5 at 20 °C. The sugar phosphate concentration in the syringe was 1 mM or 1.5 mM, and ~3.5 μL aliquots were injected into cells containing 300 μL eIF2Bα or eIF2B(βδγε) at a concentration of 20–30 μM. The final titration curves were fitted using MicroCal ITC data analysis software, assuming a single binding site per monomer.

eIF2Bα [1] = biological target: T2, eIF2Bα (Homo sapiens, UniProt Q14232); test: Differential scanning fluorimetry (Protein Thermal Shift), eIF2Bα Tm; format: binding; conditions: individual replicates Rep 1-4, control without metabolite about 64.1
T2 construct: made in house; host or cells: E. coli BL21(DE3)
T2 sequence (Q14232 1-305): T1 sequence (Q14232 1-305 N208Y) with Y208N
Procedure: The effect of metabolite binding on eIF2Bα Tm was assessed using the Protein Thermal Shift assay (Thermo Fisher), following manufacturer’s instructions. Briefly, reaction conditions for each 20 μL reaction were: 1.1 μg (1.5 μM) of eIF2Bα, 5 μl Thermal Shift buffer, 1X Thermal Shift dye, and metabolites in dose response. Reactions were run in 384-well format on a QuantStudio 6 Flex instrument (Thermo Fisher). The resulting melt curves were analyzed using Protein Thermal Shift Software, and eIF2Bα Tms for each condition were calculated by fitting to the Boltzmann function.

eIF2Bα [2] = biological target: T2, eIF2Bα; test: Isothermal titration calorimetry, wild-type eIF2Bα; format: binding
Procedure: as §1

eIF2B [3] = biological target: T3, eIF2B (Homo sapiens, UniProt P49770+Q14232+Q9UI10); test: eIF2B GEF activity assay, targeted, recombinant wild-type eIF2B; format: biochemical; conditions: 500 nM ISRIB, 200 μM F6P, 200 μM G1P
T3 construct: made in house; host or cells: eIF2Bα: E. coli BL21(DE3)
T3 sequence (Q14232 whole entry): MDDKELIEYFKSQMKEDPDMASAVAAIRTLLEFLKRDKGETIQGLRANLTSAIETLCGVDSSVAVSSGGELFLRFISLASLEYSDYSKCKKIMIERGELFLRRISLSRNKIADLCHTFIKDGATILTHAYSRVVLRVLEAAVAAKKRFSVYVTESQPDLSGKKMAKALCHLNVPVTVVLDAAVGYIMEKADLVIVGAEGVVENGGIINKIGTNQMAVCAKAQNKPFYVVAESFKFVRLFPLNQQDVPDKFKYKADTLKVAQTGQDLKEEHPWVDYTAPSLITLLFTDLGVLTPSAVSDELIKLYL
T3 sequence (P49770 whole entry): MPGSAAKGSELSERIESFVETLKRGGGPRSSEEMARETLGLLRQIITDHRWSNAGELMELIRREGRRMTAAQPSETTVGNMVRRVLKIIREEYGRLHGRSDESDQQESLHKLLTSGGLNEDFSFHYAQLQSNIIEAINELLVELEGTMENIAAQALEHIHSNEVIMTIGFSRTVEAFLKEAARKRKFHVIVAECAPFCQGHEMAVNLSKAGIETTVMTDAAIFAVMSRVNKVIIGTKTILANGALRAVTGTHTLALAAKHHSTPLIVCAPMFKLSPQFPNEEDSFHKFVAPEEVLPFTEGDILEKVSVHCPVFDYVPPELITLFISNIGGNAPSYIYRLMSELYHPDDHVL
T3 sequence (Q9UI10 whole entry): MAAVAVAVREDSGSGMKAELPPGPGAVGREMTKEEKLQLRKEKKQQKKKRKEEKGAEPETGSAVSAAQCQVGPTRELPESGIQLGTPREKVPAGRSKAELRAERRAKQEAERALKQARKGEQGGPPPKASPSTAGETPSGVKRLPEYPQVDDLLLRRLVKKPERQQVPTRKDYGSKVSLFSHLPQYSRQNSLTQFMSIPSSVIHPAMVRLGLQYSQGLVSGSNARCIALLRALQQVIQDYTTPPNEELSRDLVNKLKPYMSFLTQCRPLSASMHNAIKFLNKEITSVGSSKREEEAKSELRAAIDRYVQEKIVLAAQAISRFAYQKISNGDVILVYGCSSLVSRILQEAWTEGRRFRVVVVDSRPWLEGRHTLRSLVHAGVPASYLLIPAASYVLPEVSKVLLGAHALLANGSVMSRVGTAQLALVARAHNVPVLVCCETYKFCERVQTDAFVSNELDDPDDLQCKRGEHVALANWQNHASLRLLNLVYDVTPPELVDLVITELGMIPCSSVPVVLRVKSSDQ
T3 sequence (Q9NR50 whole entry partner): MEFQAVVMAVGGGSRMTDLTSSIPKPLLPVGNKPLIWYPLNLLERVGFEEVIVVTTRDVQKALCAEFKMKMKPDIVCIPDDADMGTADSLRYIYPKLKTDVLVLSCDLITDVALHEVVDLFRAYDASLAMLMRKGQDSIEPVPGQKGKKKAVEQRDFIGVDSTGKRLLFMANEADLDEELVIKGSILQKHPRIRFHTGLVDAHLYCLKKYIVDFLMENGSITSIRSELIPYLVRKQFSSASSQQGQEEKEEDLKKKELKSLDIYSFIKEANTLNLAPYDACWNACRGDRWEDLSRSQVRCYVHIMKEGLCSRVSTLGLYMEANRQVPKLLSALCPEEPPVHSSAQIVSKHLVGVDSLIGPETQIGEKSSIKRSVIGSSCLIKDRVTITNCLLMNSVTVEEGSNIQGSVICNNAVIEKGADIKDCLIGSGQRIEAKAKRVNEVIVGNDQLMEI
T3 sequence (Q13144 whole entry partner): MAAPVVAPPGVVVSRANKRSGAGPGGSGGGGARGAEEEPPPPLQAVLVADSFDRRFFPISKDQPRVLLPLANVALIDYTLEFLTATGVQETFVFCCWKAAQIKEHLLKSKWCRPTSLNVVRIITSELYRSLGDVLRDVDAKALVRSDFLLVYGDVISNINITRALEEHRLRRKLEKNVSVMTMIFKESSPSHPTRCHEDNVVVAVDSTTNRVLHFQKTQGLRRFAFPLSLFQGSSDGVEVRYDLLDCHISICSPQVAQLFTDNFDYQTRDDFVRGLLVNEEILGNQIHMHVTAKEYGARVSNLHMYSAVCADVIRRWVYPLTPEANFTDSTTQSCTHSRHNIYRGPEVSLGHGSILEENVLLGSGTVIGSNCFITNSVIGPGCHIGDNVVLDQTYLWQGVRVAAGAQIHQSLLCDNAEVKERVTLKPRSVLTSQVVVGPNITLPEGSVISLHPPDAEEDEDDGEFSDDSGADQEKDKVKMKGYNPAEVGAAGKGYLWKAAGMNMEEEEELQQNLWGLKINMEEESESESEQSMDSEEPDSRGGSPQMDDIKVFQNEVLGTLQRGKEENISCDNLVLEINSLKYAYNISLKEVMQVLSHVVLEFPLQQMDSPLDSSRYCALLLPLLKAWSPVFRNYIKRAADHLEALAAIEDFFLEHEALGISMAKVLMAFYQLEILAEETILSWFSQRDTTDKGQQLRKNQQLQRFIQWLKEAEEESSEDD
Procedure: (§2) Bodipy-FL-GDP-loaded eIF2 was used as a substrate for recombinant eIF2B. The assay was performed in 384-well plates. Reactions were read on a SpectraMax i3x plate reader (Molecular Devices) using the instrument’s Softmax Pro software with the following parameters: plate temperature = 25 °C; excitation wavelength = 485 nm (15 nm width); emission wavelength = 535 nm (25 nm width); read duration = 30 min at 45 s intervals. Data were analyzed in Prism. GDP release half-lives were calculated by fitting single-exponential decay curves.
For unbiased screening, MIDAS metabolite libraries at 10 mM stock concentration were dispensed into wells of the assay plate using an Echo Acoustic Liquid Handler (Labcyte). In a final assay volume of 10 μL/well, the following conditions were kept constant: 25 nM Bodipy-FL-GDP-loaded eIF2, 4 nM phospho-eIF2, 0.1 mM GDP, 1 mg/mL BSA, 1 nM eIF2B, 10 μM metabolite. A single well was run for each metabolite. For targeted experiments with recombinant wild-type and mutant eIF2Bα, the following conditions were used: 50 nM Bodipy-FL-GDP-loaded eIF2, 0.1 mM GDP, 1 mg/ml BSA, 20 nM eIF2B. For targeted experiments with HEK293T lysates, the following conditions were used: 50 nM Bodipy-FL-GDP-loaded eIF2, 0.1 mM GDP, 1 mg/ml BSA, 0.1 or 0.3 mg/ml lysates.

[4] = biological target: T4, eIF2B decamer in WT HEK293T lysate (Homo sapiens, UniProt P49770+Q14232+Q9UI10); test: Sucrose gradient centrifugation, eIF2B complex assembly, WT HEK293T lysate; format: biochemical; conditions: 400 mM KCl, 5–20% sucrose gradient
T4 construct: endogenous in cells; host or cells: HEK293T (wild type) lysate
T4 sequence (Q14232 whole entry): as the sequence (Q14232 whole entry) above
T4 sequence (P49770 whole entry): as the sequence (P49770 whole entry) above
T4 sequence (Q9UI10 whole entry): as the sequence (Q9UI10 whole entry) above
T4 sequence (Q9NR50 whole entry partner): as the sequence (Q9NR50 whole entry partner) above
T4 sequence (Q13144 whole entry partner): as the sequence (Q13144 whole entry partner) above
Procedure: WT or eIF2Bα mutant HEK293T cells were harvested and lysed in 50 mM HEPES, 400 mM KCl, 1 mM DTT, 4 mM Mg(OAc)2, pH 7.5 + 0.5% Triton-X-100 + EDTA-free protease inhibitor cocktail (Roche) on ice for 30 min. Lysates were cleared by centrifugation at 48,000 × g, 4 °C for 30 min. 100 μL of each cleared lysate was loaded onto a 5–20% sucrose gradient prepared in a 13 × 51 mm ultracentrifuge tube using a Gradient Station (Biocomp) and centrifuged in a SW55 Ti rotor at 152,000 × g, 4 °C for 12 h. After centrifugation, 24 × 200 μL fractions were manually collected from the top to bottom of each gradient. Each fraction was subjected to methanol/chloroform precipitation and SDS-PAGE followed by Western Blot with the indicated antibodies. Blots were imaged on a ChemiDoc MP (Bio-Rad), and band intensities were quantified using the instrument’s Image Lab software. Each value was then divided by total intensity obtained across all fractions to determine percent enrichment of each subunit in each fraction.

eIF2Bα [5] = biological target: T2, eIF2Bα; test: MIDAS (mass spectrometry integrated with equilibrium dialysis) metabolite binding screen
Procedure, shortened: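 Hits called at Storey q < 0.1 on z-scores of PCA-corrected log2 fold change between protein and metabolite chambers, quantified by FIA-MS in triplicate.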

eIF2B [6] = biological target: T3, eIF2B; test: eIF2B GEF activity assay, unbiased metabolite screen (Bodipy-FL-GDP release); format: biochemical; conditions: 10 μM metabolite
Procedure: as §2
For unbiased screening, MIDAS metabolite libraries at 10 mM stock concentration were dispensed into wells of the assay plate using an Echo Acoustic Liquid Handler (Labcyte). […] A single well was run for each metabolite. […] For targeted experiments with HEK293T lysates, the following conditions were used: 50 nM Bodipy-FL-GDP-loaded eIF2, 0.1 mM GDP, 1 mg/ml BSA, 0.1 or 0.3 mg/ml lysates.

Q: With `O=C[C@@H](O)[C@@H](O)[C@H](O)[C@H](O)COP(=O)(O)O` [M6P, mannose-6-phosphate] as the molecule, how does the “interaction with eIF2Bα N208Y” value (eIF2Bα^N208Y) read?
A: does not interact

Q: And the “Tm of eIF2Bα” value (eIF2Bα [1]; 0.33 mM metabolite)?
A: 64.7587 °C and 64.5257 °C and 64.0751 °C and 63.7209 °C

Q: And the “Tm of eIF2Bα” value (eIF2Bα [1]; 1 mM metabolite)?
A: 66.0911 °C and 65.9704 °C and 65.2776 °C and 64.2935 °C

Q: What about the “Tm of eIF2Bα” value (eIF2Bα [1]; 5 mM metabolite) of the same molecule?
A: 66.7846 °C and 66.6099 °C and 66.516 °C and 65.7833 °C

Q: And the Kd (eIF2Bα [2]; ITC, wild-type eIF2Bα)?
A: 282 ± 35 µM

Q: And the “ITC binding isotherm, heat per mole of injectant” value (eIF2Bα [2]; molar ratio 0.225339)?
A: -1.246 kcal/mol

Q: And the “ITC binding isotherm, heat per mole of injectant” value (eIF2Bα [2]; molar ratio 0.415168)?
A: -1.08 kcal/mol

Q: And the “ITC binding isotherm, heat per mole of injectant” value (eIF2Bα [2]; molar ratio 0.606855)?
A: -1.012 kcal/mol

Q: And the “ITC binding isotherm, heat per mole of injectant” value (eIF2Bα [2]; molar ratio 0.8004)?
A: -0.9251 kcal/mol

Q: And the “ITC binding isotherm, heat per mole of injectant” value (eIF2Bα [2]; molar ratio 0.995804)?
A: -0.7798 kcal/mol

Q: What about the “ITC binding isotherm, heat per mole of injectant” value (eIF2Bα [2]; molar ratio 1.19307) of the same molecule?
A: -0.7719 kcal/mol

Q: And the “ITC binding isotherm, heat per mole of injectant” value (eIF2Bα [2]; molar ratio 1.39219)?
A: -0.7333 kcal/mol

Q: And the “ITC binding isotherm, heat per mole of injectant” value (eIF2Bα [2]; molar ratio 1.59317)?
A: -0.643 kcal/mol

Q: And the “ITC binding isotherm, heat per mole of injectant” value (eIF2Bα [2]; molar ratio 1.796)?
A: -0.5884 kcal/mol

Q: And the “ITC binding isotherm, heat per mole of injectant” value (eIF2Bα [2]; molar ratio 2.0007)?
A: -0.5938 kcal/mol

Q: What about the “ITC binding isotherm, heat per mole of injectant” value (eIF2Bα [2]; molar ratio 2.20725) of the same molecule?
A: -0.6099 kcal/mol

Q: What about the “ITC binding isotherm, heat per mole of injectant” value (eIF2Bα [2]; molar ratio 2.41567) of the same molecule?
A: -0.5269 kcal/mol

Q: And the “ITC binding isotherm, heat per mole of injectant” value (eIF2Bα [2]; molar ratio 2.62594)?
A: -0.5106 kcal/mol

Q: What about the “ITC binding isotherm, heat per mole of injectant” value (eIF2Bα [2]; molar ratio 2.83807) of the same molecule?
A: -0.4795 kcal/mol

Q: And the “ITC binding isotherm, heat per mole of injectant” value (eIF2Bα [2]; molar ratio 3.05206)?
A: -0.426 kcal/mol

Q: And the “ITC binding isotherm, heat per mole of injectant” value (eIF2Bα [2]; molar ratio 3.2679)?
A: -0.4467 kcal/mol

Q: What about the “ITC binding isotherm, heat per mole of injectant” value (eIF2Bα [2]; molar ratio 3.48561) of the same molecule?
A: -0.4459 kcal/mol

Q: And the “ITC binding isotherm, heat per mole of injectant” value (eIF2Bα [2]; molar ratio 3.70517)?
A: -0.1953 kcal/mol

Q: Which results are given for `O=P(O)(O)O[C@H]1O[C@H](CO)[C@@H](O)[C@H](O)[C@H]1O` [G1P, glucose-1-phosphate]?
A: effect on GEF activity of recombinant wild-type eIF2B (eIF2B [3]): an inactive metabolite in the enzymatic assay; eIF2B decamer formation (migration of eIF2Bα and eIF2Bδ) [4]: did not affect the migration of eIF2B subunits; Tm of eIF2Bα (eIF2Bα [1]; 0.33 mM metabolite): 64.9734 °C and 64.7812 °C and 64.8751 °C and 63.7923 °C; Tm of eIF2Bα (eIF2Bα [1]; 1 mM metabolite): 65.6948 °C and 65.7116 °C and 65.1967 °C and 64.0445 °C; Tm of eIF2Bα (eIF2Bα [1]; 3.3 mM metabolite): 65.6535 °C and 64.9673 °C and 65.2055 °C and 64.2208 °C; Tm of eIF2Bα (eIF2Bα [1]; 10 mM metabolite): 65.8625 °C and 65.8106 °C and 65.498 °C and 64.4559 °C; interaction with eIF2Bα (eIF2Bα [2]; ITC, wild-type eIF2Bα): did not interact

Q: What does the source list for `O=c1ccn([C@@H]2O[C@H](COP(=O)(O)O)[C@@H](O)[C@H]2O)c(=O)[nH]1` [UMP, Uridine monophosphate]?
A: log2(corrected fold change) (eIF2Bα [5]; MIDAS screen, sheet eIF2Ba, metabolites screened in pools 1-4, p-value and q-value given): 1.855; MIDAS result (enrichment in the protein chamber / hit status) (eIF2Bα [5]; eIF2Bα2, 50 μM per metabolite pool, 40 h dialysis at 4 °C): a strong hit in MIDAS; effect on eIF2B GEF activity in the screen (eIF2B [6]): a hit in this functional assay screen; Tm of eIF2Bα (eIF2Bα [1]; 0.33 mM metabolite): 64.124 °C and 63.8726 °C and 64.7063 °C and 64.4005 °C; Tm of eIF2Bα (eIF2Bα [1]; 1 mM metabolite): 65.4937 °C and 64.6631 °C and 66.2688 °C and 66.0835 °C; Tm of eIF2Bα (eIF2Bα [1]; 5 mM metabolite): 67.0947 °C and 66.2443 °C and 67.297 °C and 67.2174 °C
